Consider 17 compounds from patent US11052092B2, “N-{[2-(piperidin-1-yl)phenyl](phenyl)methyl}-2-(3-oxo-3,4-dihydro-2H-1,4-benzoxazin-7-yl)acetamide derivatives and related compounds as ROR-gamma modulators for treating autoimmune diseases” (Genfit, priority 2017, dated 2021).

In series [1] the test system is Murine EL-4 lymphoma cell line overexpressing human RORγt. The experiment in a line: IL-17 secretion from EL4 murine lymphoma. It is filed as cell-based. The note with it: Mus musculus; human RORγt-transfected EL4 cells, PMA (10 ng/mL) and ionomycin (1 μM), 24 h; read-out: IC50, IL-17 secretion inhibition. The essentials:
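EL-4 cells electroporated with hRORγt plasmid, seeded at 150000 cells/well and pretreated with compound for 24 h, then stimulated with PMA (10 ng/mL) plus ionomycin (1 μM final) with compound for a further 24 h at 37 °C. IL-17 in supernatant measured by HTRF or ELISA.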

In series [2] the target is T1, human RORγt (Homo sapiens, UniProt P51449).
T1 construct: the full-length cDNA of human RORγt; expressed in transfected cells; host or cells: COS-7 (monkey kidney)
T1 sequence (P51449 1-497 isoform P51449-2): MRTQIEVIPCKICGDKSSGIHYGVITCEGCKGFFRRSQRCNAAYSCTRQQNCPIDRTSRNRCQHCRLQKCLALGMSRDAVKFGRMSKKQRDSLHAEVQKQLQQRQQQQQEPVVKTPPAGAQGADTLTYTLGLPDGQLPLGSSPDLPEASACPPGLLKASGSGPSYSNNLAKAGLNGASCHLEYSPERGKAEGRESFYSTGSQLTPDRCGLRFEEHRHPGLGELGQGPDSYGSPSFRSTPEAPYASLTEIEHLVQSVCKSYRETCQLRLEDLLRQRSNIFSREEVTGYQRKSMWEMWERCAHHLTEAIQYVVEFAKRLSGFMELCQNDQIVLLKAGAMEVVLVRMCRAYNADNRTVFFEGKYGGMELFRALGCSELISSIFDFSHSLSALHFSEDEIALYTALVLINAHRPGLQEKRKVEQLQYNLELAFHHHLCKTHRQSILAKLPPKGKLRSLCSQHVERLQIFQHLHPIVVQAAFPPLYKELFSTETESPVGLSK
The experiment in a line: RORE Luciferase/RORγt transactivation assay. The note with it: COS-7 cells transfected with human IL-17 promoter luciferase reporter and RORγt plasmid; 20 h with compound; read-out: IC50, RORγt activity inhibition. It is filed as cell-based. The essentials:
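COS-7 cells were transiently co-transfected with a human IL-17 promoter (RORE/CNS)–luciferase reporter and a RORγt expression plasmid, then seeded at 10000 cells/well in serum-free, phenol red-free DMEM. Compounds were added at 0.3% DMSO final. Luciferase was read with Steady-Glo, and IC50 and Emax were derived.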

The target of series [3] is T2, RORγt ligand-binding domain (RORγt-LBD) (Homo sapiens, UniProt P51449).
T2 construct: 20 nM recombinantly expressed RORγ-LBD fused to GST
T2 sequence (P51449 269-508 limits assumed): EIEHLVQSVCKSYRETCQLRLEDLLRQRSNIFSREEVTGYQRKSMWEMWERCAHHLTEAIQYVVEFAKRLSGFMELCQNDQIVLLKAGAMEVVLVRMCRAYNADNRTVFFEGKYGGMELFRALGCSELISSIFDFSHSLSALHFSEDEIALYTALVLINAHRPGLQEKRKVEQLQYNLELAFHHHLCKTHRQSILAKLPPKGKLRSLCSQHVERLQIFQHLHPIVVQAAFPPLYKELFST
In words: Time-resolved FRET (TR-FRET) RORγt coactivator assay. The note with it: GST-RORγ-LBD, biotinylated RIP140 peptide, 2 hours at room temperature. An excerpt:
Time-resolved FRET (TR-FRET) RORγt coactivator assay was used to identify RORγ modulator compounds with ligand-dependent coactivator displacement. The assay uses a d2-labeled anti-GST antibody, synthetic N-terminally biotinylated peptide which is derived from nuclear receptor coactivator protein RIP140, and a RORγt ligand-binding domain (RORγt-LBD) that is tagged with glutathione-S-transferase (GST). The influence of compounds on the RORγ-peptide interaction relies on the binding dependent energy transfer from a donor to an acceptor fluorophor attached to the binding partner of interest. […] For reduction of background from compound fluorescence, TR-FRET method makes use of generic fluorophore labels and time resolved detection.
The assays were done in a final volume of 20 μl in a 384 well plate in a CHAPS buffer (2 mM CHAPS; 1 mM DTT, 2 mM EDTA; 0.1% BSA), containing 20 nM recombinantly expressed RORγ-LBD fused to GST, 30 nM N-terminally biotinylated peptide, 1 nM streptavidin-terbium conjugate and 20 nM d2 labeled-anti-GST. Test compounds were diluted using 10 mM stock solution. The range of the final compound concentrations used in this test was from 0.3 nM to 30 μM (logarithmic scale). DMSO content of the samples was kept at 1%. The assay was equilibrated for 2 hours in the dark at room temperature in 384 well plates (Falcon). The signal was detected by an Ultra384 reader (TECAN). […] Compounds that promote coactivator displacement induce a concentration-dependent decrease in time-resolved fluorescent signal. Data were collected and analyzed using GraphPad Prism software (GraphPad Software V5.02, San Diego Calif. USA). IC50 in μM and Emax in % were reported for each compound.

Consider `Cc1ccc(C(NC(=O)C2(c3ccc4[nH]cc(CCO)c4c3)CC2)c2ccc(C)o2)c(C)c1` (stereo not shown) [Cpd. 60, N-[(2,4-dimethylphenyl)(5-methylfuran-2-yl)methyl]-1-[3-(2-hydroxyethyl)-1H-indol-5-yl]cyclopropane-1-carboxamide], for which the results for the IC50 in series [1], in series [2] and in series [3] were less than 100 nM, less than 10 nM and less than 10 nM, respectively.

`Cc1ccc(C(NC(=O)Cc2ccc3[nH]cc(C)c3c2)c2ccc(C)o2)c(N2CCCCC2)c1` (stereo not shown) [Cpd. 64, 2-(3-methyl-1H-indol-5-yl)-N-{[4-methyl-2-(piperidin-1-yl)phenyl](5-methylfuran-2-yl)methyl}acetamide]: the results for the IC50 in series [1], in series [2] and in series [3] were less than 100 nM, 10 to 100 nM and 100 to 1000 nM, respectively.

`Cc1ccc(C(NC(=O)C2(c3ccc4c(c3)CS(=O)(=O)N4)CC2)c2ccc(C)o2)c(N(C)C)c1` (stereo not shown) [Cpd. 71, N-{[2-(dimethylamino)-4-methylphenyl](5-methylfuran-2-yl)methyl}-1-(2,2-dioxo-1,3-dihydro-2,1-benzothiazol-5-yl)cyclopropane-1-carboxamide]: the values for the IC50 in series [1], in series [2] and in series [3] were 100 to 1000 nM, 10 to 100 nM and less than 10 nM, respectively.

Regarding `Cc1ccc(C(NC(=O)C2(c3ccc4c(c3)CS(=O)(=O)C4)CC2)c2ccc(C)o2)c(C)c1` (stereo not shown) [Cpd. 74, N-[(2,4-dimethylphenyl)(5-methylfuran-2-yl)methyl]-1-(2,2-dioxo-1,3-dihydro-2-benzothiophen-5-yl)cyclopropane-1-carboxamide], the half-maximal inhibitory concentration (IC50) (commonly the concentration at which inhibition is half-maximal) was 100 to 1000 nM in series [1], 10 to 100 nM in series [2] and less than 10 nM in series [3].

For the compound `Cc1ccc(C(NC(=O)Cc2ccc3[nH]c(C)nc3c2)c2ccc(C)o2)c(Br)c1` (stereo not shown) [Cpd. 77, N-[(2-bromo-4-methylphenyl)(5-methylfuran-2-yl)methyl]-2-(2-methyl-1H-1,3-benzodiazol-5-yl)acetamide], the half-maximal inhibitory concentration (IC50) in series [1] was 100 to 1000 nM; in series [2], 10 to 100 nM; in series [3], less than 10 nM.

`Cc1ccc(C(NC(=O)Cc2ccc3[nH]c(C)nc3c2)c2ccccc2)c(Br)c1` (stereo not shown) [Cpd. 81, N-[(2-bromo-4-methylphenyl)(phenyl)methyl]-2-(2-methyl-1H-1,3-benzodiazol-5-yl)acetamide]: the melting point – broadly, the temperature of the solid-liquid transition – came to 138 °C. Moreover, in series [1], the half-maximal inhibitory concentration (IC50) was in the range of 100 to 1000 nM. Also, in series [2], the IC50 was in the range of 10 to 100 nM. Moreover, the IC50 in series [3] fell in the range of 10 to 100 nM.

Turning to `Cc1ccc(C(NC(=O)Cc2ccc3[nH]c(C)nc3c2)c2ccccc2)c(N2CCCC2)c1` (stereo not shown) [Cpd. 82, 2-(2-methyl-1H-1,3-benzodiazol-5-yl)-N-{[4-methyl-2-(pyrrolidin-1-yl)phenyl](phenyl)methyl}acetamide], the half-inhibitory concentration (IC50) in series [1] was 100 to 1000 nM; in series [2], 10 to 100 nM; in series [3], 10 to 100 nM.

Regarding `Cc1ccc(C(NC(=O)C2(c3ccc4c(c3)CC(=O)N4)CC2)c2ccc(Cl)o2)c(C)c1` (stereo not shown) [Cpd. 86, N-[(5-chlorofuran-2-yl)(2,4-dimethylphenyl)methyl]-1-(2-oxo-2,3-dihydro-1H-indol-5-yl)cyclopropane-1-carboxamide], the results for the IC50 in series [1], in series [2] and in series [3] were less than 100 nM, less than 10 nM and less than 10 nM, respectively.

Regarding `Cc1ccc(C(NC(=O)C2(c3ccc4c(c3)CS(=O)(=O)N4)CC2)c2ccc(Cl)o2)c(C)c1` (stereo not shown) [Cpd. 87, N-[(5-chlorofuran-2-yl)(2,4-dimethylphenyl)methyl]-1-(2,2-dioxo-1,3-dihydro-2,1-benzothiazol-5-yl)cyclopropane-1-carboxamide], the IC50 was less than 100 nM in series [1], 10 to 100 nM in series [2] and less than 10 nM in series [3].

For the compound `CCOc1nc2cc(CC(=O)NC(c3ccccc3)c3ccc(C)cc3Br)ccc2[nH]1` (stereo not shown) [Cpd. 90, N-[(2-bromo-4-methylphenyl)(phenyl)methyl]-2-(2-ethoxy-1H-1,3-benzodiazol-5-yl)acetamide], the IC50 lay in the range of 100 to 1000 nM in series [1], 10 to 100 nM in series [2] and 10 to 100 nM in series [3].

As for `CSc1ccc2cc(CC(=O)NC(c3ccc(C)o3)c3ccc(C)cc3N3CCCCC3)ccc2c1` (stereo not shown) [Cpd. 91, N-{[4-methyl-2-(piperidin-1-yl)phenyl](5-methylfuran-2-yl)methyl}-2-[6-(methylsulfanyl)naphthalen-2-yl]acetamide], the IC50 fell in the range of 100 to 1000 nM in series [1], 10 to 100 nM in series [2] and 100 to 1000 nM in series [3].

With `CCSc1nc2cc(CC(=O)NC(c3ccccc3)c3ccc(C)cc3Br)ccc2[nH]1` (stereo not shown) [Cpd. 92, N-[(2-bromo-4-methylphenyl)(phenyl)methyl]-2-[2-(ethylsulfanyl)-1H-1,3-benzodiazol-5-yl]acetamide], the figures for the 50% inhibitory concentration (IC50) in series [1], in series [2] and in series [3] were 100 to 1000 nM, 10 to 100 nM and 100 to 1000 nM, respectively.

In the case of `Cc1ccc(C(NC(=O)Cc2ccc3[nH]cc(CCS(C)(=O)=O)c3c2)c2ccc(C)o2)c(N2CCCCC2)c1` (stereo not shown) [Cpd. 98, 2-[3-(2-methanesulfonylethyl)-1H-indol-5-yl]-N-{[4-methyl-2-(piperidin-1-yl)phenyl](5-methylfuran-2-yl)methyl}acetamide], the 50% inhibitory concentration (IC50) in series [1] was less than 100 nM; in series [2], 10 to 100 nM; in series [3] it was 10 to 100 nM.

`Cc1ccc(C(NC(=O)C2(c3ccc4c(c3)OCS(=O)(=O)N4)CC2)c2ccc(C)o2)c(C)c1` (stereo not shown) [Cpd. 124, N-[(2,4-dimethylphenyl)(5-methylfuran-2-yl)methyl]-1-(2,2-dioxo-1,3-dihydro-4,2,1-benzoxathiazin-6-yl)cyclopropane-1-carboxamide]: the figures for the half-inhibitory concentration (IC50) in series [1], in series [2] and in series [3] were 100 to 1000 nM, 10 to 100 nM and less than 10 nM, respectively.

As for `Cc1ccc(C(NC(=O)C2(c3ccc4c(c3)C(=O)C(=O)N4)CC2)c2ccc(C)o2)c(C)c1` (stereo not shown) [Cpd. 125, N-[(2,4-dimethylphenyl)(5-methylfuran-2-yl)methyl]-1-(2,3-dioxo-2,3-dihydro-1H-indol-5-yl)cyclopropane-1-carboxamide], the results for the IC50 in series [1], in series [2] and in series [3] were less than 100 nM, 10 to 100 nM and less than 10 nM, respectively.

With `CC(=O)N1Cc2ccc(C3(C(=O)NC(c4ccc(C)o4)c4ccc(C)cc4C)CC3)cc2C1` (stereo not shown) [Cpd. 127, 1-(2-acetyl-2,3-dihydro-1H-isoindol-5-yl)-N-[(2,4-dimethylphenyl)(5-methylfuran-2-yl)methyl]cyclopropane-1-carboxamide], the IC50 is less than 100 nM in series [1], 10 to 100 nM in series [2] and less than 10 nM in series [3].

Take `Cc1ccc(C(NC(=O)C2(c3ccc4c(c3)CC(=O)N4C)CC2)c2ccc(C)o2)c(C)c1` (stereo not shown) [Cpd. 130, N-[(2,4-dimethylphenyl)(5-methylfuran-2-yl)methyl]-1-(1-methyl-2-oxo-2,3-dihydro-1H-indol-5-yl)cyclopropane-1-carboxamide]: the IC50 in series [1] was less than 100 nM; in series [2], 10 to 100 nM; in series [3], less than 10 nM.
